Laboratory results published in patent US20250280696A1, “FORMULATIONS AND USES THEREOF IN OPTOELECTRONIC FIELD” (Zhejiang Brilliant Optoelectronic Technology Co.,Ltd., priority 2022, published 2025).

Columns and labels:
Type in all cases: physicochemical
[1] = Absorption and emission spectrum in spin-coated film; details: for Red shift of the spectrum in the film relative to the solution: film vs toluene solution
Method: The Absorption and emission spectrums of the compounds in the film were determined as follows: • 1. The compound with a certain concentration in the toluene was prepared. • 2. The prepared toluene solution was dropped onto a clean glass substrate. • 3. Spin-coating, and then heating at the 80° C. for 1 min. • 4. The absorption spectrum of the film was measured by using an ultraviolet-visible spectrophotometer (Puxi T9s) to obtain the absorption peak wavelength. • 5. The emission spectrum of the film was measured by using a fluorescent spectroscope (Hitachi, F-4700 FL Spectrophotometer) to obtain the emission peak wavelength.
(§1) The extinction coefficients of the compounds and their absorption and emission peaks in the solution and film are shown in Table 3.

[2] = UV stability of compounds in toluene (absorbance decay, t80); details: UV LEDs 365 nm & 255 nm, 12 cm, time until absorbance decayed to 80% of initial value
Method: The UV stability of the compounds were tested as follows:
The compound was dissolved in the toluene with a concentration of 1×10^5 mol/L. 3 mL solution was added to the cuvette with a lid and the lid was screwed on tightly, then the cuvette was placed in the ultraviolet-visible spectrophotometer to test the absorption spectrum, the absorbance of the maximum absorption peak was recorded as the initial value. The cuvette was placed at a distance of 12 cm from the UV LEDs (365 nm & 255 nm), irradiated for a period and tested its absorption spectrum, then continued to be irradiated after the test, and repeated until the absorbance decayed to 80% of its initial value, the time was recorded as t80.

[3] = Absorption spectrum, emission spectrum and extinction coefficient in toluene solution; details: for Molar extinction coefficient of the toluene solution: at maximum absorption peak
Method: The extinction coefficients of the compounds and their absorption and emission spectrums in the solution were determined as follows: • 1. The compound with a certain amount of substance concentration in the toluene was prepared in a volumetric flask. • 2. The absorption spectrum of the solution was measured by using an ultraviolet-visible spectrophotometer (Puxi T9s) to obtain the absorption peak wavelength. • 3. The absorbance of the maximum absorption peak divided by the amount of substance concentration is the molar extinction coefficient of the compound. • 4. The emission spectrum of the solution was measured by using a fluorescent spectroscope (Hitachi, F-4700 FL Spectrophotometer) to obtain the emission peak wavelength.
as §1

[4] = Solubility of compounds in toluene; details: per 100 g toluene
Method: The solubility of the compounds in the toluene were determined as follows: • 1. 1000 mg toluene was placed in the transparent glass sample bottle. • 2. A certain mass of the compound was added into the toluene, and oscillated until completely dissolved. • 3. After the compound was completely dissolved, a certain mass of the compound was further added into the toluene, and oscillated. • 4. The above steps were repeated until the compound wasn't dissolved any more. • 5. The total mass of the compound added was recorded and the solubility was obtained by calculation.

Structure (SMILES)	Red shift of the spectrum in the film relative to the solution [1]	Absorption peak of the film ([1]; spin-coated film on glass) [nm]	Emission peak of the film ([1]; spin-coated film on glass) [nm]	Times t80 [2] [min]	Absorption peak of the toluene solution [3] [nm]	Emission peak of the toluene solution [3] [nm]	Molar extinction coefficient of the toluene solution [3] [L/mol]	Solubilities(/100 g toluene) [4] [g]
c1ccc(N(c2ccccc2)c2cc(N(c3ccccc3)c3ccccc3)c3ccc4c(N(c5ccccc5)c5ccccc5)cc(N(c5ccccc5)c5ccccc5)c5ccc2c3c54)cc1 [Compound 20]	large red shift	482	561	188	465	488	23000	>1.5
CCCCCCCCc1ccc(-c2cc(C(C)C)ccc2N(c2cc(F)c(F)c(F)c2)c2cc(N(c3cc(F)c(F)c(F)c3)c3ccc(C(C)C)cc3-c3ccc(CCCCCCCC)cc3)c3ccc4c(N(c5cc(F)c(F)c(F)c5)c5ccc(C(C)C)cc5-c5ccc(CCCCCCCC)cc5)cc(N(c5cc(F)c(F)c(F)c5)c5ccc(C(C)C)cc5-c5ccc(CCCCCCCC)cc5)c5ccc2c3c54)cc1 [Compound 22]	very small red shift	–	490	377	–	–	59000	>15
CC1CCC(C(C)C)C(Oc2ccc(-c3cc(C(C)C)ccc3N(c3cc(F)c(F)c(F)c3)c3cc(N(c4cc(F)c(F)c(F)c4)c4ccc(C(C)C)cc4-c4ccc(OC5CC(C)CCC5C(C)C)cc4)c4ccc5c(N(c6cc(F)c(F)c(F)c6)c6ccc(C(C)C)cc6-c6ccc(OC7CC(C)CCC7C(C)C)cc6)cc(N(c6cc(F)c(F)c(F)c6)c6ccc(C(C)C)cc6-c6ccc(OC7CC(C)CCC7C(C)C)cc6)c6ccc3c4c65)cc2)C1 (stereo not shown) [Compound 23]	very small red shift	–	–	405	–	–	68000	>10
CCCCCCCCc1ccc(-c2cc(OC)ccc2N(c2cc(F)c(F)c(F)c2)c2cc(N(c3cc(F)c(F)c(F)c3)c3ccc(OC)cc3-c3ccc(CCCCCCCC)cc3)c3ccc4c(N(c5cc(F)c(F)c(F)c5)c5ccc(OC)cc5-c5ccc(CCCCCCCC)cc5)cc(N(c5cc(F)c(F)c(F)c5)c5ccc(OC)cc5-c5ccc(CCCCCCCC)cc5)c5ccc2c3c54)cc1 [Compound 24]	very small red shift	–	–	352	–	–	70000	>10
CCCCCCCCc1ccc(N(c2ccc(C(C)C)cc2-c2cc(F)c(F)c(F)c2)c2cc(N(c3ccc(CCCCCCCC)cc3)c3ccc(C(C)C)cc3-c3cc(F)c(F)c(F)c3)c3ccc4c(N(c5ccc(CCCCCCCC)cc5)c5ccc(C(C)C)cc5-c5cc(F)c(F)c(F)c5)cc(N(c5ccc(CCCCCCCC)cc5)c5ccc(C(C)C)cc5-c5cc(F)c(F)c(F)c5)c5ccc2c3c54)cc1 [Compound 26]	very small red shift	–	–	486	–	–	55000	>10
